US9890147B2 (BAYER PHARMA AKTIENGESELLSCHAFT, priority 2012, dated 2018)

Legend:
BRD4 (BD1) = biological target: T1, BRD4 (BD1) (Homo sapiens, UniProt O60885); assay: Binding assay BRD4/acetylated peptide H4 (TR-FRET protein-protein interaction assay)
T1 construct: with relatively long constructs also being possible, preferably amino acids 44-168; made in house; host or cells: E. coli
Procedure, shortened: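 Displacement of biotin-Ac-H4 peptide from His6-tagged BRD4(BD1), final usually 10 nM, read as Eu-streptavidin to anti-His-XL665 TR-FRET (665/620 nm). Compounds tested at 11 doses up to 20 μM in duplicate, pH 7.5 HEPES, 22 °C then 4 °C incubation; IC50 by 4-parameter regression.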

MOLM-13 cells = assay: Cell proliferation assay (alamarBlue), MOLM-13; type: cell-based; details: Homo sapiens, 96 hours incubation, inhibition of cell proliferation
Procedure, shortened: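 IC50 = concentration giving 50% growth inhibition relative to buffer-treated cells, after subtracting baseline fluorescence taken before dosing. Compound applied at 1E-5 to 1E-8 M for 96 h at 37 °C in RPMI1640 with 10% FCS; alamarBlue signal at 530/590 nm.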

B16F10 cells = assay: Cell proliferation assay (alamarBlue), B16F10; type: cell-based; details: Mus musculus, B16-F10, 96 hours incubation, inhibition of cell proliferation
Description: (§1) In accordance with the invention, the capability of the substances to inhibit cell proliferation was determined Cell viability was determined using the alamarBlue® reagent (Invitrogen) in a Victor X3 Multilabel Reader (Perkin Elmer). The excitation wavelength was 530 nm and the emission wavelenth […].
The B16F10 cells (ATCC, CRL-6475) were sown at a concentration of 300-500 cells/well in 100 μl growth medium (DMEM with phenol red, 10% FCS) on 96-well microtitre plates.
(§2) After an overnight incubation at 37° C., the fluorescence values (CI values) were determined. The plates were then treated with various substance dilutions (1E-5 M, 3E-6 M, 1E-6M, 3E-7 M, 1E-7 M, 3E-8 M, 1E-8 M) and incubated at 37° C. for 72 (MV4-11-, LOX-IMVI cells), 96 (MOLM-13-, B16F10-, MDA-MB-431-, Caov-3 cells), 120 (MOLP-8-, KMS-12-PE cells) or 168 (LAPC-4 cells) hours. The fluorescence values (CO values) were then determined. For the data analysis, the CI values were subtracted from the CO values and the results were compared between cells treated with different dilutions of the substance or with buffer solution only. These were used to calculate the IC 50 values (substance concentration required for 50% inhibition of cell proliferation).

MV4-11 cells = assay: Cell proliferation assay (alamarBlue), MV4-11; type: cell-based; details: Homo sapiens, 72 hours incubation, inhibition of cell proliferation
Description: as §1
The MV4-11 cells (ATCC, CRL 9591) were sown at a concentration of 5000 cells/well in 100 μl growth medium (RPMI1640, 10% FCS) on 96-well microtitre plates.
as §2

LOX-IMVI cells = assay: Cell proliferation assay (alamarBlue), LOX-IMVI; type: cell-based; details: Homo sapiens, 72 hours incubation, inhibition of cell proliferation
Description: as §1
The LOX-IMVI cells (NCI-60) were sown at a concentration of 1000 cells/well in 100 μl growth medium (RPMI1640, 10% FCS) on 96-well microtitre plates.
as §2

MOLP-8 cells = assay: Cell proliferation assay (alamarBlue), MOLP-8; type: cell-based; details: Homo sapiens, 120 hours incubation, inhibition of cell proliferation
Description: as §1
The MOLP-8 cells (DSMZ, ACC 569) were sown at a concentration of 4000 cells/well in 100 μl growth medium (RPMI1640, 20% FCS) on 96-well microtitre plates.
as §2

KMS-12-PE cells = assay: Cell proliferation assay (alamarBlue), KMS-12-PE; type: cell-based; details: Homo sapiens, 120 hours incubation, inhibition of cell proliferation
Description: as §1
The KMS-12-PE cells (DSMZ, ACC 606) were sown at a concentration of 4000 cells/well in 100 μl growth medium (RPMI1640, 20% FCS) on 96-well microtitre plates.
as §2

LAPC-4 cells = assay: Cell proliferation assay (alamarBlue), LAPC-4; type: cell-based; details: Homo sapiens, LAPC4; inhibition of cell proliferation, LAPC-4 (prostate cancer), 1 nM methyltrienolone, 168 hours
Description: as §1
The LAPC-4 cells (ATCC, PTA-1441TM) were sown at a concentration of 4000 cells/well in 100 μl growth medium (RPMI1640, 2 mM L-glutamine, 10% cFCS) on 96-well microtitre plates. A day later, the LAPC-4 cells were treated with 1 nM methyltrienolone and various substance dilutions.
as §2

Caov-3 cells = assay: Cell proliferation assay (alamarBlue), Caov-3; type: cell-based; details: Homo sapiens; inhibition of cell proliferation, Caov-3 (ovarian carcinoma), 96 hours
Description: as §1
The MDA-MB-231 cells (DSMZ, ACC 732) were sown at a concentration of 4000 cells/well in 100 μl growth medium (DMEM/Ham's F12 medium, 10% FCS) on 96-well microtitre plates. The Caov-3 cells (ATCC, HTB-75) were sown at a concentration of 2000 cells/well in 100 μl growth medium (MEM Earle's medium, 10% FCS) on 96-well microtitre plates.
as §2

| IC50 (BRD4 (BD1)) [nM] | IC50 (MOLM-13 cells) [nM] | IC50 (B16F10 cells) [nM] | IC50 (MV4-11 cells) [nM] | Structure (SMILES) | IC50 (LOX-IMVI cells) [nM] | IC50 (MOLP-8 cells) [nM] | IC50 (KMS-12-PE cells) [nM] | IC50 (LAPC-4 cells) [nM] | IC50 (Caov-3 cells) [nM] |
| --- | --- | --- | --- | --- | --- | --- | --- | --- | --- |
| 70 | 300 | 170 |  | CNC(=O)N1N=C(c2ccc(N3CC(F)(F)C3)cc2)c2cc(OC)c(OC)cc2CC1C (racemic) [Example 181, (±)-1-[4-(3,3-difluoroazetidin-1-yl)phenyl]-7,8-dimethoxy-N,4-dimethyl-4,5-dihydro-3H-2,3-benzodiazepine-3-carboxamide] |  |  |  |  |  |
| 60 | 300 | 130 |  | CNC(=O)N1N=C(c2ccc(N3CC(O)C3)cc2)c2cc(OC)c(OC)cc2CC1C (racemic) [Example 184, (±)-1-[4-(3-hydroxyazetidin-1-yl)phenyl]-7,8-dimethoxy-N,4-dimethyl-4,5-dihydro-3H-2,3-benzodiazepine-3-carboxamide] |  |  |  |  |  |
| 70 | 280 | 160 |  | CNC(=O)N1N=C(c2ccc(N3CC(C)(O)C3)cc2)c2cc(OC)c(OC)cc2CC1C (racemic) [Example 185, (±)-1-[4-(3-hydroxy-3-methylazetidin-1-yl)phenyl]-7,8-dimethoxy-N,4-dimethyl-4,5-dihydro-3H-2,3-benzodiazepine-3-carboxamide] |  |  |  |  |  |
| 130 | 330 | 240 |  | CNC(=O)N1N=C(c2ccc(N3CCN(C(C)C)CC3)cc2)c2cc(OC)c(OC)cc2CC1C (racemic) [Example 186, (±)-1-[4-(4-Isopropylpiperazin-1-yl)phenyl]-7,8-dimethoxy-N,4-dimethyl-4,5-dihydro-3H-2,3-benzodiazepine-3-carboxamide] |  |  |  |  |  |
| 80 | 330 | 170 |  | CNC(=O)N1N=C(c2ccc(N3CC(OC)C3)cc2)c2cc(OC)c(OC)cc2CC1C (racemic) [Example 187, (±)-7,8-dimethoxy-1-[4-(3-methoxyazetidin-1-yl)phenyl]-N,4-dimethyl-4,5-dihydro-3H-2,3-benzodiazepine-3-carboxamide] |  |  |  |  |  |
| 50 | 200 | 100 |  | CNC(=O)N1N=C(c2ccc(N3CCC(C)(O)CC3)cc2)c2cc(OC)c(OC)cc2CC1C (racemic) [Example 188, (±)-1-[4-(4-hydroxy-4-methylpiperidin-1-yl)phenyl]-7,8-dimethoxy-N,4-dimethyl-4,5-dihydro-3H-2,3-benzodiazepine-3-carboxamide] |  |  |  |  |  |
| 60 | 440 | 210 |  | CNC(=O)C1CCN(c2ccc(C3=NN(C(=O)NC)C(C)Cc4cc(OC)c(OC)cc43)cc2)CC1 (racemic) [Example 189, (±)-7,8-dimethoxy-N,4-dimethyl-1-{4-[4-(methylcarbamoyl)piperidin-1-yl]phenyl}-4,5-dihydro-3H-2,3-benzodiazepine-3-carboxamide] |  |  |  |  |  |
| 40 | 140 | 100 |  | CNC(=O)N1N=C(c2ccc(N3CCN(C)CC3)cc2)c2cc(OC(F)(F)F)ccc2CC1C (racemic) [Example 250, (±)-N,4-dimethyl-1-[4-(4-methyl-1-piperazinyl)phenyl]-8-(trifluoromethoxy)-4,5-dihydro-3H-2,3-benzodiazepine-3-carboxamide] |  |  |  |  |  |
| 40 | 170 |  | 270 | CNC(=O)N1N=C(c2ccc(-c3ccnn3C)cc2)c2cc(OC)ccc2C[C@@H]1C [Example 19, (4S)-8-methoxy-N,4-dimethyl-1-[4-(1-methyl-1H-pyrazol-5-yl)phenyl]-4,5-dihydro-3H-2,3-benzodiazepine-3-carboxamide] | 650 | 270 | 270 | 110 | 410 |
| 90 | 270 |  |  | CNC(=O)N1N=C(c2ccc(-c3ccn[nH]3)cc2)c2cc(OC)ccc2C[C@@H]1C [Example 23, (4S)-8-methoxy-N,4-dimethyl-1-[4-(1H-pyrazol-5-yl)phenyl]-4,5-dihydro-3H-2,3-benzodiazepine-3-carboxamide] |  |  |  | 190 |  |
| 40 | 430 |  |  | CNC(=O)N1N=C(c2ccc(-n3nc(COC)cc3C)cc2)c2cc(OC)ccc2C[C@@H]1C [Example 26, (4S)-8-methoxy-1-{4-[3-(methoxymethyl)-5-methyl-1H-pyrazol-1-yl]phenyl}-N,4-dimethyl-4,5-dihydro-3H-2,3-benzodiazepine-3-carboxamide] |  |  |  | 130 |  |
| 30 | 630 |  |  | CNC(=O)N1N=C(c2ccc(-n3nc(C)cc3COC)cc2)c2cc(OC)ccc2C[C@@H]1C [Example 27, (4S)-8-methoxy-1-{4-[5-(methoxymethyl)-3-methyl-1H-pyrazol-1-yl]phenyl}-N,4-dimethyl-4,5-dihydro-3H-2,3-benzodiazepine-3-carboxamide] |  |  |  | 180 |  |
| 70 | 110 | 60 |  | CNC(=O)N1N=C(c2ccc(N3CCNCC3)cc2)c2cc(OC)c(OC)cc2C[C@@H]1C [Example 131.1, (4S)-7,8-dimethoxy-N,4-dimethyl-1-[4-(piperazin-1-yl)phenyl]-4,5-dihydro-3H-2,3-benzodiazepine-3-carboxamide] |  |  |  |  |  |
| 40 | 150 | 80 |  | CNC(=O)N1N=C(c2ccc(N3CCN(S(C)(=O)=O)CC3)cc2)c2cc(OC)c(OC)cc2C[C@@H]1C [Example 135.1, (4S)-7,8-dimethoxy-N,4-dimethyl-1-{4-[4-(methylsulphonyl)piperazin-1-yl]phenyl}-4,5-dihydro-3H-2,3-benzodiazepine-3-carboxamide] |  |  |  |  |  |
| 110 | 230 |  | 130 | CNC(=O)N1N=C(c2ccc(-n3ccc(-c4ccc(F)cc4)n3)cc2)c2cc(OC)c(OC)cc2C[C@@H]1C [Example 150.1, (4S)-1-{4-[3-(4-fluorophenyl)-1H-pyrazol-1-yl]phenyl}-7,8-dimethoxy-N,4-dimethyl-4,5-dihydro-3H-2,3-benzodiazepine-3-carboxamide] | 340 | 230 | 180 |  | 340 |
| 40 | 210 | 100 |  | CNC(=O)C1CCN(c2ccc(C3=NN(C(=O)NC)[C@@H](C)Cc4cc(OC)c(OC)cc43)cc2)CC1 [Example 189.1, (4S)-7,8-dimethoxy-N,4-dimethyl-1-{4-[4-(methylcarbamoyl)piperidin-1-yl]phenyl}-4,5-dihydro-3H-2,3-benzodiazepine-3-carboxamide] |  | 80 |  |  |  |
| 20 | 50 | 40 |  | CNC(=O)N1N=C(c2ccc(N3CCN(C)CC3)cc2)c2cc(OC(F)(F)F)ccc2C[C@@H]1C [Example 250.2, (4S)-N,4-dimethyl-1-[4-(4-methyl-1-piperazinyl)phenyl]-8-(trifluoromethoxy)-4,5-dihydro-3H-2,3-benzodiazepine-3-carboxamide] |  |  |  |  |  |
